Laboratory results reported in ChEMBL document CHEMBL4177599, “The antitubercular activity of various nitro(triazole/imidazole)-based compounds” (Bioorg Med Chem, 2017).
Values after ≈ are worked out from the molar mass of the structure shown.

What was measured:
[1] = test system: Mycobacterium tuberculosis; assay: Antitubercular activity against Mycobacterium tuberculosis H37Rv ATCC 27294 after 5 days under aerobic condition; assay type: functional, organism-based; settings: for IC50 / IC90 / MIC: H37Rv ATCC 27294, 120 h
[2] = test system: Mycobacterium tuberculosis; assay: Antitubercular activity against Mycobacterium tuberculosis H37Rv ATCC 27294 after 10 days under low oxygen condition followed by incubation under aerobic condition for 28 hrs by LORA; assay type: functional, organism-based
[3] = test system: Mycobacterium tuberculosis; assay: Bactericidal activity against Mycobacterium tuberculosis H37Rv ATCC 27294 assessed as concentration required for 2 log kill after 21 days under aerobic condition by colony forming assay; assay type: functional; settings: for MBC: H37Rv ATCC 27294, 504 h
THP-1 = assay: Cytotoxicity against human THP1 cells after 3 days by luminescence assay; assay type: cell-based; settings: THP-1, 72 h
L6 = assay: Cytotoxicity against rat L6 cells after 2 days by CellTiter-Glo luminescent cell viability assay; assay type: ADME, cell-based; settings: L6, 48 h
[4] = test system: Mycobacterium tuberculosis; assay: Antitubercular activity against luxABCDE expressing Mycobacterium tuberculosis H37Rv infected in human THP1 cells measured after 3 days by luminescence assay; assay type: functional, organism-based; settings: THP-1, 72 h
[5] = Protein binding in human plasma at 5 uM after 4 hrs by LC-MS/MS analysis
[6] = Half life in human liver S9 microsomes at 1 uM in presence of NADPH by LC-MS/MS analysis
[7] = Half life in human liver S9 microsomes at 1 uM in absence of NADPH by LC-MS/MS analysis
HepG2 = assay: Cytotoxicity against human HepG2 cells at 100 uM after 3 days by CellTiter-Glo luminescent cell viability assay; assay type: cell-based; settings: HepG2, 72 h
[8] = Intrinsic clearance in human liver S9 microsomes at 1 uM in presence of NADPH by LC-MS/MS analysis; assay type: ADME, S9 microsome; settings: read-out: CLH
[9] = Intrinsic clearance in human liver S9 microsomes at 1 uM in absence of NADPH by LC-MS/MS analysis; assay type: ADME, S9 microsome; settings: read-out: CLH
[10] = Apparent permeability of the compound across apical side to basolateral side in human Caco2 cells monolayer at 10 uM after 1 hr by LC-MS/MS analysis; assay type: ADME, cell-based; settings: Caco-2
[11] = Apparent permeability of the compound across basolateral side to apical side in human Caco2 cells monolayer at 10 uM after 1 hr by LC-MS/MS analysis; assay type: ADME, cell-based; settings: Caco-2
[12] = Fraction unbound in human plasma at 5 uM after 4 hrs by LC-MS/MS analysis; assay type: ADME, cell-free
in vitro [13] = settings: human, Caco-2
Description: (§1) Apparent permeability of the compound across apical side to basolateral side in human Caco2 cells monolayer at 10 uM after 2 hrs by LC-MS/MS analysis

in vitro [14] = settings: human, Caco-2; remark: listed apart in the source
Description: (§2) Apparent permeability of the compound across basolateral side to apical side in human Caco2 cells monolayer at 10 uM after 2 hrs by LC-MS/MS analysis

in vitro [15] = settings: human, Caco-2; remark: listed apart in the source
Description: Efflux ratio of apparent permeability from basolateral to apical over apical to basolateral side in human Caco2 cells monolayer at 10 uM after 2 hrs by LC-MS/MS analysis

in vitro [16] = settings: human, THP1 cells
Description: Selectivity index, ratio of IC50 for human THP1 cells to IC50 for Mycobacterium tuberculosis H37Rv under aerobic condition

in vitro [17] = settings: human, Caco-2; remark: listed apart in the source
Description: Efflux ratio of apparent permeability from basolateral to apical over apical to basolateral side in human Caco2 cells monolayer at 10 uM after 1 hr by LC-MS/MS analysis

[18] = test system: Mycobacterium tuberculosis; assay: Antitubercular activity against luxABCDE expressing Mycobacterium tuberculosis H37Rv infected in mouse J774 macrophages assessed as log reduction in bacterial colonies at 2.6 uM measured after 4 days under aerobic condition by luminescence assay; assay type: functional
[19] = test system: Mycobacterium tuberculosis; assay: Antitubercular activity against luxABCDE expressing Mycobacterium tuberculosis H37Rv infected in mouse J774 macrophages assessed as log reduction in bacterial colonies at 30 uM measured after 4 days under aerobic condition by luminescence assay; assay type: functional
[20] = test system: Mycobacterium tuberculosis; assay: Potency index, ratio of compound MIC to ethambutol MIC for antitubercular activity against Mycobacterium tuberculosis H37Rv ATCC 27294 under aerobic condition; assay type: functional
[21] = test system: Mycobacterium tuberculosis; assay: Potency index, ratio of compound MIC to metronidazole MIC for antitubercular activity against Mycobacterium tuberculosis H37Rv ATCC 27294 under low oxygen condition; assay type: functional
Vero = assay: Cytotoxicity against African green monkey Vero cells after 2 days by CellTiter-Glo luminescent cell viability assay; assay type: ADME, cell-based; settings: Chlorocebus sabaeus, 48 h
[22] = test system: Mycobacterium tuberculosis; assay: Antitubercular activity against luxABCDE expressing Mycobacterium tuberculosis H37Rv infected in mouse J774 macrophages assessed as log reduction in bacterial colonies at 7.2 uM measured after 4 days under aerobic condition by luminescence assay; assay type: functional
[23] = test system: Mycobacterium tuberculosis; assay: Antitubercular activity against luxABCDE expressing Mycobacterium tuberculosis H37Rv infected in mouse J774 macrophages assessed as log reduction in bacterial colonies at 10.9 uM measured after 4 days under aerobic condition by luminescence assay; assay type: functional
[24] = Solubility of compound in Middlebrook 7H9 broth media at pH 6.4 at 200 uM after 90 mins by UV-VIS spectrophotometric method; assay type: physicochemical; settings: buffer, pH 6.4, 1.5 h
[25] = test system: Mycobacterium tuberculosis; assay: Antitubercular activity against luxABCDE expressing Mycobacterium tuberculosis H37Rv infected in mouse J774 macrophages assessed as log reduction in bacterial colonies at 20 uM measured after 4 days under aerobic condition by luminescence assay; assay type: functional
[26] = human, caco-2, 2 h, 10 µM
Description: as §1

[27] = human, caco-2, 2 h, 10 µM; remark: listed apart in the source
Description: as §2

Compound: O=C(CCn1cnc([N+](=O)[O-])n1)Nc1cccc(-c2ccccc2)c1
- IC50 [1]: 3.6 to 6.1 µM
- IC90 [1]: 6.8 to 7.1 µM
- MIC [1]: 6.8 to 8.4 µM (≈ 2.29 to 2.83 µg/mL)
- Activity ([1]; TDE = time-dependent effect): Tde
- IC50 [2]: 7.8 µM
- IC90 [2]: 44 µM
- MIC [2]: > 200 µM
- MBC [3]: 6.8 µM (≈ 2.29 µg/mL)
- Activity ([3]; TDE = time-dependent effect): Tde
- IC50 (THP-1): > 50 µM
- IC50 (L6): 36 µM
- IC50 [4]: 2.3 µM
- IC90 [4]: 4.1 µM
- fraction unbound at 4 h, 5 µM [5]: 0.042
- half-life at 1 µM [6]: > 3 h
- half-life at 1 µM [7]: > 3 h
- IC50 (HepG2): > 100 µM
- microsomal CLint at 1 µM [8]: < 12.8 µL/min/mg
- microsomal CLint at 1 µM [9]: < 12.8 µL/min/mg
- Papp A→B at 1 h, 10 µM [10]: 22.2 ×10⁻⁶ cm/s
- Papp B→A at 1 h, 10 µM [11]: 17.5 ×10⁻⁶ cm/s
- fraction unbound at 4 h, 5 µM [12]: 0.033
- Papp A→B at 2 h, 10 µM (in vitro [13]): 18 ×10⁻⁶ cm/s
- Papp B→A at 2 h, 10 µM (in vitro [14]): 7 ×10⁻⁶ cm/s
- efflux ratio at 2 h, 10 µM (in vitro [15]): 0.39
- selectivity ratio (in vitro [16]): > 10
- efflux ratio at 1 h, 10 µM (in vitro [17]): 0.79

Compound: NNC(=O)c1ccncc1 [ISONIAZID]
- IC50 [1]: 0.131 µM
- IC90 [1]: 0.2 µM
- MIC [1]: 0.313 µM (≈ 0.0429 µg/mL)
- IC50 [4]: 0.19 µM
- IC90 [4]: 0.24 µM
- log(activity) [18]: 2.6
- log(activity) [19]: 2.7

Compound: O=C(CCn1cnc([N+](=O)[O-])n1)Nc1cccc(OCc2ccccc2)c1
- Activity [1]: Dose-dependent effect
- IC50 [1]: 1.7 to 3.2 µM
- IC90 [1]: 2.8 to 3.6 µM
- MIC [1]: 3 to 4.1 µM (≈ 1.1 to 1.51 µg/mL)
- IC50 [2]: 9.2 µM
- IC90 [2]: 41 µM
- MIC [2]: > 200 µM
- Activity [3]: Dose-dependent effect
- MBC [3]: 0.75 µM (≈ 0.276 µg/mL)
- Ratio [20]: 2
- IC50 (THP-1): > 50 µM
- IC50 (L6): 40 µM
- IC50 [4]: 1.3 µM
- IC90 [4]: 2.9 µM
- fraction unbound at 4 h, 5 µM [5]: 0.033
- half-life at 1 µM [6]: 2.07 h
- half-life at 1 µM [7]: > 3 h
- IC50 (HepG2): > 100 µM
- microsomal CLint at 1 µM [8]: 18.7 µL/min/mg
- microsomal CLint at 1 µM [9]: < 12.8 µL/min/mg
- Papp A→B at 1 h, 10 µM [10]: 22.2 ×10⁻⁶ cm/s
- Papp B→A at 1 h, 10 µM [11]: 17.6 ×10⁻⁶ cm/s
- fraction unbound at 4 h, 5 µM [12]: 0.042
- Papp A→B at 2 h, 10 µM (in vitro [13]): 15.8 ×10⁻⁶ cm/s
- Papp B→A at 2 h, 10 µM (in vitro [14]): 10.5 ×10⁻⁶ cm/s
- efflux ratio at 2 h, 10 µM (in vitro [15]): 0.67
- selectivity ratio (in vitro [16]): > 10
- efflux ratio at 1 h, 10 µM (in vitro [17]): 0.79

Compound: O=C(NCCCCn1cnc([N+](=O)[O-])n1)c1sc2ccccc2c1Cl
- IC50 [1]: 4 µM
- IC90 [1]: 6.4 µM
- MIC [1]: 6.1 µM (≈ 2.32 µg/mL)
- IC50 [2]: 35.5 µM
- IC90 [2]: 61.4 µM
- MIC [2]: 21.5 µM (≈ 8.17 µg/mL)
- MBC [3]: 7.2 µM (≈ 2.73 µg/mL)
- Ratio [21]: 6 - 9
- IC50 (Vero): > 100 µM
- IC50 (L6): > 264 µM
- log(activity) [22]: 2.2

Compound: CC(C)NCC(O)COc1cccc2ccccc12 (stereo unspecified) [PROPRANOLOL]
- fraction unbound at 4 h, 5 µM [5]: 0.199
- Papp B→A at 1 h, 10 µM [11]: 43.3 ×10⁻⁶ cm/s
- fraction unbound at 4 h, 5 µM [12]: 0.244
- Papp A→B at 2 h, 10 µM (in vitro [13]): 8.8 to 25.4 ×10⁻⁶ cm/s
- Papp B→A at 2 h, 10 µM (in vitro [14]): 21.1 to 27.3 ×10⁻⁶ cm/s
- efflux ratio at 2 h, 10 µM (in vitro [15]): 0.83 to 3.1
- efflux ratio at 1 h, 10 µM (in vitro [17]): 2.5

Compound: O=C(NCCCCn1cnc([N+](=O)[O-])n1)c1nc2ccccc2s1
- IC50 [1]: 4.9 µM
- IC90 [1]: 7.4 µM
- MIC [1]: 6.7 µM (≈ 2.32 µg/mL)
- IC50 [2]: 26 µM
- IC90 [2]: 29.2 µM
- MIC [2]: 23.4 µM (≈ 8.11 µg/mL)
- MBC [3]: 10.9 µM (≈ 3.78 µg/mL)
- Ratio [21]: 6 - 9
- IC50 (Vero): > 100 µM
- log(activity) [23]: 2.4
- solubility [24]: Soluble

Compound: O=C(Cn1cnc([N+](=O)[O-])n1)Nc1nc(-c2ccc(F)c(F)c2)cs1
- IC50 [1]: 27 µM
- IC90 [1]: 39 µM
- MIC [1]: 37 µM (≈ 13.6 µg/mL)
- IC50 [2]: 8.7 µM
- IC90 [2]: 39 µM
- MIC [2]: > 200 µM
- MBC [3]: 20 µM (≈ 7.33 µg/mL)
- IC50 (Vero): 55 µM
- log(activity) [25]: 2.4
- fraction unbound at 4 h, 5 µM [5]: 0.002
- half-life at 1 µM [6]: > 3 h
- half-life at 1 µM [7]: > 3 h
- IC50 (HepG2): 78 µM
- Papp [26]: 37.7 ×10⁻⁶ cm/s
- Papp [27]: 19.9 ×10⁻⁶ cm/s
